Among the data in patent US20130102595A1 (Curis, Inc., priority 2011, published 2013) are IC50 and melting point values, retold here.

Broadly, the pIC50 is the negative decadic logarithm of the IC50, by convention in mol/L. As usually defined, the melting point is the temperature of the solid-liquid transition.

Molecules are shown by their SMILES. pIC50: −log10 of the molar value.

The target of data set [1] is T1, mTor serine/threonine protein kinase (Homo sapiens, UniProt P42345).
T1 construct: FLAG; made in house; host or cells: Baculovirus expression system in Sf21 cells
Put plainly: mTor kinase radioisotope assay. The class given is biochemical. As to conditions: 70 uM ATP, 40 minutes; read-out: m-TOR IC50. Put shortly:
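FLAG-tagged full-length recombinant human mTor from baculovirus/Sf21, incubated with p70S6K C-terminal fragment (2 mg/ml) and 70 uM ATP plus 33P-ATP tracer in 50 mM HEPES pH 7.5, 3 mM MnCl2, 40 min at room temperature. Phosphoric acid stop, filtermat capture, scintillation counting; IC50 from sigmoidal dose-response fit.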

A further data set has as its target T2, PI3Kδ (p110δ/p85α) (Homo sapiens, UniProt O00329).
T2 construct: GST (N); made in house; host or cells: Baculovirus-infected Sf9 cells
Put plainly: PI3Kδ ADP-Glo assay. The class given is biochemical. As to conditions: 20 μM PIP2, 10 μM ATP, 90 minutes. How it is done:
(c) an In Vitro Assay which Determines the Ability of a Test Compound to Inhibit PI3Kδ.
Activity of PI3Kδ was measured using ADP-Glo assay from Promega. PI3Kδ, a complex of N-terminal GST-tagged recombinant full-length human p110δ (GenBank, Accession No. NM_005026) and untagged recombinant full length human p85α (GenBank Accession No. XM—043865) were co-expressed in a Baculovirus infected Sf9 cell expression system. The ADP-Glo assay was performed to measure the amount of ADP generated from ATP hydrolysis coupled with PIP2 phosphorylation by the purified recombinant PI3Kδ (p110δ/p85α). PI3Kδ was incubated with 20 μM PIP2 substrate in the reaction buffer (10 mM Tris-HCl, pH 7.5, 50 mM NaCl, 5 mM MgCl2, 10 μM ATP and 0.5% DMSO) for 90 minutes at room temperature. The ADP generated was then detected by ADP-Glo assay from Promega, a luminescent ADP detection assay. The ADP-Glo assay is performed in two steps; first, after the kinase reaction, ADP-Glo Reagent is added to terminate the kinase reaction and deplete the remaining ATP. Second, the Kinase Detection Reagent is added to simultaneously convert ADP to ATP and allow the newly synthesized ATP to be measured using a luciferase/luciferin reaction.

The next data set relates to LN-Cap. Put plainly: Cell proliferation assay (CellTiter-Glo). It counts as cell-based. As to conditions: Homo sapiens, LNCaP; Prostate; 72 hours, 0.5% fetal bovine serum; read-out: antiproliferative activity IC50, LN-Cap. The gist of the method:
(§1)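 Inhibition of growth was assessed as loss of ATP signal; cultures at 5,000–10,000 cells per well received serial compound doses for 72 h with 0.5% FBS, then were lysed for 30 min before luminescence reading.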
A general note: In ATP-based viability assays light output follows the ATP content of the culture.

For the next data set, the system named is OVCAR-5. The data set can be described thus: Cell proliferation assay (CellTiter-Glo). As to conditions: Homo sapiens, Ovarian, 72 hours, 0.5% fetal bovine serum, read-out: antiproliferative activity IC50, OVCAR-5. It counts as cell-based. The gist of the method: as §1
The subject of the next data set is PC-3. The data set can be described thus: Cell proliferation assay (CellTiter-Glo). The class given is cell-based. As to conditions: Homo sapiens, Prostate, 72 hours, 0.5% fetal bovine serum, read-out: antiproliferative activity IC50, PC-3. Put shortly: as §1

T2 sequence (O00329 whole entry): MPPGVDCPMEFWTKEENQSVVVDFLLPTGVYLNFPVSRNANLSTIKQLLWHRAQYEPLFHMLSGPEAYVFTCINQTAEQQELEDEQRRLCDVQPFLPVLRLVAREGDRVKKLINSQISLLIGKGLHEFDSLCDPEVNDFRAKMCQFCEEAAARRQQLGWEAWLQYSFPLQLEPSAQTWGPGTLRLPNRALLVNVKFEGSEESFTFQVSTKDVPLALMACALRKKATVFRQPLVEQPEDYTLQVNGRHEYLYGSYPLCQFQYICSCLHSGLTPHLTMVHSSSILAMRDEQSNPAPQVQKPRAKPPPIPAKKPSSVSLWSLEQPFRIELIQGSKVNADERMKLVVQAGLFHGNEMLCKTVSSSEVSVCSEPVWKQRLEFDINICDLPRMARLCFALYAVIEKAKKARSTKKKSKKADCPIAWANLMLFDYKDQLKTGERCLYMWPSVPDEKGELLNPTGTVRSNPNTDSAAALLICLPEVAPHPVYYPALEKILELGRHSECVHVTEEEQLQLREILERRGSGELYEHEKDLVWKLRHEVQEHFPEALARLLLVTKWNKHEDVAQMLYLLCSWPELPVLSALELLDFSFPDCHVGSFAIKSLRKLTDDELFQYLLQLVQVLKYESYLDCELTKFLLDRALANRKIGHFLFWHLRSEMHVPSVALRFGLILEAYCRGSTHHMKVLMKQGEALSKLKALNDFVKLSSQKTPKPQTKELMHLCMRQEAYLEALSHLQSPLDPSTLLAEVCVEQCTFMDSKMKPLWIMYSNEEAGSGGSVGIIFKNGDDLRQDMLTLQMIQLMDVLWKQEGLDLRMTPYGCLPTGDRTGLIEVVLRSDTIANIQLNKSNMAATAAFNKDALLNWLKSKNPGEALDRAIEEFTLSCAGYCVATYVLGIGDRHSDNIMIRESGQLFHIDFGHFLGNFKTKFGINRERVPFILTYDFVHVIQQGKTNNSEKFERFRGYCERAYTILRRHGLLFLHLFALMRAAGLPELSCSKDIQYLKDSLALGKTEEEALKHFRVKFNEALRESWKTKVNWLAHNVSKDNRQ
T2 sequence (P27986 whole entry partner): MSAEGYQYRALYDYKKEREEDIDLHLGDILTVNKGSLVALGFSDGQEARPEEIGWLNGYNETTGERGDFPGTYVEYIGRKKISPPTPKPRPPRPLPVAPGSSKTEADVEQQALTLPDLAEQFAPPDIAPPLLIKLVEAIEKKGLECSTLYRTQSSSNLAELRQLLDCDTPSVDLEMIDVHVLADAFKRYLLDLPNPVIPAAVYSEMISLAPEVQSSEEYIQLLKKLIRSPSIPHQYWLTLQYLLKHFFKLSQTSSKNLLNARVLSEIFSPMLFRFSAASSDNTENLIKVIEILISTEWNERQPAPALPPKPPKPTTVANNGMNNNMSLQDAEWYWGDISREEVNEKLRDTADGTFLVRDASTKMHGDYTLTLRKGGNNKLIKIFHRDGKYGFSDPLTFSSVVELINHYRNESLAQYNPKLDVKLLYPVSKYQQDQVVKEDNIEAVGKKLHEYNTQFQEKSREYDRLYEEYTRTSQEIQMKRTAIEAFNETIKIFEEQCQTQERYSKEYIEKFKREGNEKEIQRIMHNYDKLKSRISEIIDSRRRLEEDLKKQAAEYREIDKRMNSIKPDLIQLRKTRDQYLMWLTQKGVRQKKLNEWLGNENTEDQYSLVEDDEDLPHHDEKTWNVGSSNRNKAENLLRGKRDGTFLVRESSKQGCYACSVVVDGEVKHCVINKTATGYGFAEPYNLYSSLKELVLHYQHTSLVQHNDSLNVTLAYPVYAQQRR

`CNc1ccc(-c2nc(N3CCOCC3)c3sc(CN(C)c4ncc(C(=O)NO)cn4)cc3n2)cn1` [Compound 111, N-Hydroxy-2-(methyl((2-(6-(methylamino)pyridin-3-yl)-4-morpholinothieno[3,2-d]pyrimidin-6-yl)methyl)amino)pyrimidine-5-carboxamide]: the pIC50 (in data set [1]; on PI3Kδ (p110δ/p85α)) was greater than 7.00 each time.

As for `CN(Cc1cc2nc(-c3cccc4[nH]ncc34)nc(N3CCOCC3)c2s1)c1ncc(C(=O)NO)cn1` [Compound 54, 2-(((2-(1H-indazol-4-yl)-4-morpholinothieno[3,2-d]pyrimidin-6-yl)methyl)(methyl)amino)-N-hydroxypyrimidine-5-carboxamide], the melting point was 197 to 200 °C. The molecule also gave a pIC50 at PI3Kδ (p110δ/p85α) greater than 7.00.

Regarding `CN(Cc1cc2nc(-c3ccc(N)cc3)nc(N3CCOCC3)c2s1)c1ncc(C(=O)NO)cn1` [Compound 150, 2-(((2-(4-aminophenyl)-4-morpholinothieno[3,2-d]pyrimidin-6-yl)methyl)(methyl)amino)-N-hydroxypyrimidine-5-carboxamide], the pIC50 in data set [1] was greater than 7.00; in the data set with LN-Cap, greater than 8.00; with OVCAR-5, greater than 8.00; in the data set on PC-3, 7.00 to 8.00.
